From publication PMC10866925, “Catalyst-free late-stage functionalization to assemble α-acyloxyenamide electrophiles for selectively profiling conserved lysine residues” (Communications Chemistry, 2024)
One block for each compound: values may come before it.

Key:
EGFR L858R mutant = EGFR L858R mutant (Homo sapiens, UniProt P00533, L858R); assay: Z'-LYTE FRET kinase assay, time dependent ([…] at […] min, […] at […] h); also labelling of recombinant protein, LC-MS/MS site mapping, CETSA, competitive pull-down; format: biochemical
[1] = molecular target: T1, ATP-dependent 6-phosphofructokinase, platelet type (PFKAP) (Homo sapiens, UniProt Q01813); assay: pull-down/LC-MS and pull-down/WB in cells, K688R mutant and siRNA knockdown; format: cell-based
T1 construct: gene PFKP; full-length
T1 sequence (Q01813 1-784): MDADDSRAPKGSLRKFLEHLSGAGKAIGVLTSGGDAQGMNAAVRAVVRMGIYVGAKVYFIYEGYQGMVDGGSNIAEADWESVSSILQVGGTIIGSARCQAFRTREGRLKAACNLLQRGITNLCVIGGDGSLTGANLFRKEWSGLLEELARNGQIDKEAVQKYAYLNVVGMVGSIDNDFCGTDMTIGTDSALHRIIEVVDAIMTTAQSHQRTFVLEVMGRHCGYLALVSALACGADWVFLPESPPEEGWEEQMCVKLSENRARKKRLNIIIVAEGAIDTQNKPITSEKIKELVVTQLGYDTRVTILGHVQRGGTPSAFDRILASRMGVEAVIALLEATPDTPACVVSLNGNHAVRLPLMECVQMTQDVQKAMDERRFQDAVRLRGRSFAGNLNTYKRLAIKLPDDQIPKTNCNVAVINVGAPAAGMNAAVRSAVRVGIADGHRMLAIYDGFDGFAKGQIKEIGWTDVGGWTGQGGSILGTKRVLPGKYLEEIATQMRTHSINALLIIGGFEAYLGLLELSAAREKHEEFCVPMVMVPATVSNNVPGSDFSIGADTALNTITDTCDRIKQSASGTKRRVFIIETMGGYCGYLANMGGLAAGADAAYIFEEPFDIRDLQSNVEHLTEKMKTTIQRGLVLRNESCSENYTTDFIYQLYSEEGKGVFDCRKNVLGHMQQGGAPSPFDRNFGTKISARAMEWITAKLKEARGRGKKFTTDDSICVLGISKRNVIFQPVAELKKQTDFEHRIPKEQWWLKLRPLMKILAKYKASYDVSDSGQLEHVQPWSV

CDK5 = molecular target: T2, CDK5 (Homo sapiens, UniProt Q00535); assay: radiometric kinase assay ([…]-ATP, histone H1); also K33R pull-down/WB; format: biochemical
T2 construct: CDK5/p25 (h); with p25

CDK2 = molecular target: T3, CDK2 (Homo sapiens, UniProt P24941); assay: as above; format: biochemical
T3 construct: CDK2/cyclinA (h); with cyclin A

CDK1 = molecular target: T4, CDK1 (Homo sapiens, UniProt P06493); assay: radiometric kinase assay ([…]-ATP, histone H1); also MS of K33 modification, K33R pull-down/WB, CETSA; format: biochemical
T4 construct: CDK1/cyclinB (h); with cyclin B
T4 sequence (P06493 whole entry): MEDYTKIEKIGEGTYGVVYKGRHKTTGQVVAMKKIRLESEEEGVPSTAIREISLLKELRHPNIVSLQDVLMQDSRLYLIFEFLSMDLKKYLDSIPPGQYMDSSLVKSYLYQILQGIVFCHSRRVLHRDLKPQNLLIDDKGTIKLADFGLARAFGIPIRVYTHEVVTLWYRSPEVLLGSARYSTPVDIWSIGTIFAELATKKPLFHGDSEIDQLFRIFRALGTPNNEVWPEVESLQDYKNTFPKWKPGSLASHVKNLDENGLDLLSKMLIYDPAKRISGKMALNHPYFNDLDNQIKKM
T4 sequence (P14635 whole entry partner): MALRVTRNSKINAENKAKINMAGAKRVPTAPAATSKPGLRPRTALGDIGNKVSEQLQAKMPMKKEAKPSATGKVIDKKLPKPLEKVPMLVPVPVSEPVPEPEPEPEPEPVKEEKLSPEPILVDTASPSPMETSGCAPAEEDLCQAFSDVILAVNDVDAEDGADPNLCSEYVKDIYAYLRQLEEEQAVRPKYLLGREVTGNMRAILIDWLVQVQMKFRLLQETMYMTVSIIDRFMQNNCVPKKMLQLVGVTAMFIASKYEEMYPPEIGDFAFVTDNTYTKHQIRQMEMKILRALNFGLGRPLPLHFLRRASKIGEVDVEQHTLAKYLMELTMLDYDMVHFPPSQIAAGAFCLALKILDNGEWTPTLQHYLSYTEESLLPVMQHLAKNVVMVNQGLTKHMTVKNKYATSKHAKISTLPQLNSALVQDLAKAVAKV

Chain of EGFR L858R mutant (P00533 669-1210 L858R limits assumed): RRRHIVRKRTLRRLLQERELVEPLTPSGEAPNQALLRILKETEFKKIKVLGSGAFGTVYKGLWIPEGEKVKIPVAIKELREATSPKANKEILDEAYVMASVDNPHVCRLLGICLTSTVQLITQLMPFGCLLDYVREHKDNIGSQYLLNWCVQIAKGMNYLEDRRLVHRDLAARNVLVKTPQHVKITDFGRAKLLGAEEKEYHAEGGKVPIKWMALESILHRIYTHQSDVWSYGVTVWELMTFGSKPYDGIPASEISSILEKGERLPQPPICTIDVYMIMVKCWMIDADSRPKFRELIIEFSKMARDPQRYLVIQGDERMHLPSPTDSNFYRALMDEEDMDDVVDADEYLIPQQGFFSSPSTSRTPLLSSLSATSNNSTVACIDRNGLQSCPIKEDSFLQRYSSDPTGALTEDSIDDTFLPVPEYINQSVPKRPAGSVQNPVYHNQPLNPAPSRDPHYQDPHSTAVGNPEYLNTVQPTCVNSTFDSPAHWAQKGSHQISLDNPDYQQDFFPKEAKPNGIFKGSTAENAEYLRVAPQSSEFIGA
T2 sequence (Q00535 whole entry): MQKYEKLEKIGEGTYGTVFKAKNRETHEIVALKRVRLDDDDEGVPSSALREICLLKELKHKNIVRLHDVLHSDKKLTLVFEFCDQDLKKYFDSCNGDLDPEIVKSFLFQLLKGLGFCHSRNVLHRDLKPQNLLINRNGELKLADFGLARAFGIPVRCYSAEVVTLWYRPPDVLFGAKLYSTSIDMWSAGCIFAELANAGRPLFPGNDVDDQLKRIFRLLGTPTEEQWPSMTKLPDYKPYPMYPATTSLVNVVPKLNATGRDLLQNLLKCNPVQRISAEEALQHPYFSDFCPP
T2 sequence (Q15078 99-307 partner limits assumed): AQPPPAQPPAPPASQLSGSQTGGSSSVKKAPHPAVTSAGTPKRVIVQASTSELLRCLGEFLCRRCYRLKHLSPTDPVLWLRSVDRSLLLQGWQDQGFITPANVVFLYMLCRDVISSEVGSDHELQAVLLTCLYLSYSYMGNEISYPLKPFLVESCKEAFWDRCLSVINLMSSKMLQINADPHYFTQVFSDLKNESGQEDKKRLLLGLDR

IC50 (EGFR L858R mutant): 1.3 nM
Compound: C#Cc1cccc(Nc2ncnc3cc(OC)c(OCCCCC(=O)OC(=C)N(C)S(=O)(=O)c4ccc(C)cc4)cc23)c1 [E3]

Compound: C#Cc1ccc(C(=O)OC(=C)N(C)S(=O)(=O)c2ccc(C)cc2)cc1 [A1]
pull-down/LC-MS and pull-down/WB in cells, K688R mutant and siRNA knockdown [1]: Mutation of PFKAP K688 in the protein binding pocket to K688R severely affects the probe labeling

IC50 (CDK5): 2000 to 6000 nM | IC50 (CDK2): 2000 to 6000 nM | IC50 (CDK1): 2000 to 6000 nM
Compound: C#CCNC(=O)c1cc(Nc2cc(C3CC3)[nH]n2)nc(N2CCN(C(=O)CCC(=O)OC(=C)N(C)S(=O)(=O)c3ccc(C)cc3)CC2)n1 [X1]
